Data on four compounds can be found in ChEMBL document CHEMBL1201862, “PubChem BioAssay data set” (2004).

SMILES strings stand for the structures.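 Five compound concentrations were applied to cells in 96-well plates for 48 hours; endpoints were derived by simple linear interpolation of the resulting dose-response curve. GI50 = concentration required for 50% inhibition of growth.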 Active and inactive are the calls of the source. No stated cut-off is given here; in the data, active = GI50 up to about 1.1 µM and inactive = higher. Bounds are passed on as bounds.

Test systems include NCI-H226; SN12C; OVCAR-4; K562; A498; COLO 205; NCI-H522; SNB-75; HOP-62; CCRF-CEM; HCC 2998; SF-539; ACHN; MDA-N; MDA-MB-231; MOLT-4; CAKI-1; PC-3; MDA-MB-435.
Test in all cases: NCI-60 cell line screen, 48 h

Take `Nc1ccc(-c2nc3ccc(F)cc3s2)cc1Cl`: the GI50 in the assay on NCI-H226 was 14.1 µM (inactive); with SN12C, > 100 µM (inactive); with OVCAR-4, 0.0174 µM (active); in the assay on K562, > 100 µM (inactive); with A498 it was 0.402 µM (active); in the assay on COLO 205, > 100 µM (inactive). The GI50 with NCI-H522 is > 70.5 µM (inactive); in the assay with SNB-75, 37 µM (inactive); with HOP-62, 26.9 µM (inactive); in the assay on CCRF-CEM, 5.57 µM (inactive); in the assay with HCC 2998, 0.0869 µM (active); in the assay with SF-539, 53.5 µM (inactive). The GI50 in the assay on ACHN was > 100 µM (inactive); in the assay on MDA-N, > 100 µM (inactive); in the assay on MDA-MB-231, > 55.3 µM (inactive); with MOLT-4, > 20.4 µM (inactive); with CAKI-1 it was > 78.5 µM (inactive); in the assay on PC-3 it was > 100 µM (inactive). For the same compound, in the assay on MDA-MB-435, the GI50 is > 100 µM (inactive).

On to `C=C1C(=O)O[C@H]2C[C@@]3(C)[C@H](O)CCC(=C)[C@@H]3[C@@H](OC(C)=O)[C@H]12`, for which the GI50 in the assay on NCI-H226 was 15.2 µM (inactive); in the assay with SN12C it was 7.83 µM (inactive); in the assay with OVCAR-4, 4.85 µM (inactive); with K562, 2.63 µM (inactive); in the assay with A498, 17.8 µM (inactive); in the assay on COLO 205 it was 0.953 µM (active). In addition, the GI50 in the assay with NCI-H522 was 1.73 µM (inactive); in the assay on SNB-75, 13.1 µM (inactive); in the assay with HOP-62, 16.4 µM (inactive); in the assay on CCRF-CEM, 1 µM (active); in the assay with HCC 2998, 15.1 µM (inactive); in the assay on SF-539, 0.409 µM (active). Further, the GI50 with ACHN was 3.53 µM (inactive); in the assay with MDA-N, 4.31 µM (inactive); in the assay with MDA-MB-231, 16.1 µM (inactive); in the assay with MOLT-4 it was 3.13 µM (inactive); in the assay with CAKI-1 it was 1.48 µM (inactive); in the assay on PC-3, 16.5 µM (inactive). Moreover, in the assay with MDA-MB-435, the GI50 is 15.5 µM (inactive).

Regarding `OC1[C@@H]2[C@@H](O)[C@H](O)[C@@H](O)N2C[C@@H]1O` (stereo not given in full), the GI50 in the assay with NCI-H226, with SN12C, in the assay with OVCAR-4, in the assay on K562, in the assay on A498 and in the assay with COLO 205 was > 100 µM (inactive) each time. For the same compound, the GI50 in the assay on NCI-H522, with SNB-75, in the assay with HOP-62, with CCRF-CEM, in the assay with HCC 2998 and with SF-539 was > 100 µM (inactive) throughout. Besides, the GI50 in the assay with ACHN, in the assay on MDA-N, in the assay on MDA-MB-231, in the assay on MOLT-4, with CAKI-1 and in the assay on PC-3 was > 100 µM (inactive) each time. Also, the GI50 with MDA-MB-435 was > 100 µM (inactive).

As for `O=c1c2nc3ccccc3c(=O)n2ncn1-c1ccccc1Cl`, the GI50 with NCI-H226, in the assay with SN12C, in the assay on OVCAR-4, in the assay with K562, in the assay with A498 and in the assay with COLO 205 was > 100 µM (inactive) in each case. The GI50 with NCI-H522, in the assay with SNB-75, in the assay on HOP-62, in the assay on CCRF-CEM, in the assay with HCC 2998 and in the assay on SF-539 was > 100 µM (inactive) each time. Further, the GI50 in the assay with ACHN, in the assay with MDA-N, with MDA-MB-231, with CAKI-1, in the assay on PC-3 and in the assay on MDA-MB-435 was > 100 µM (inactive) each time.
